Results: ChEMBL document CHEMBL5291721, “A preclinical secondary pharmacology resource illuminates target-adverse drug reaction associations of marketed drugs” (Nat Commun, 2023)

Experiments:
[1] = target: T1, 5-hydroxytryptamine receptor 1A (Homo sapiens, UniProt P08908); type: functional, cell-based
T1 sequence (P08908 whole entry): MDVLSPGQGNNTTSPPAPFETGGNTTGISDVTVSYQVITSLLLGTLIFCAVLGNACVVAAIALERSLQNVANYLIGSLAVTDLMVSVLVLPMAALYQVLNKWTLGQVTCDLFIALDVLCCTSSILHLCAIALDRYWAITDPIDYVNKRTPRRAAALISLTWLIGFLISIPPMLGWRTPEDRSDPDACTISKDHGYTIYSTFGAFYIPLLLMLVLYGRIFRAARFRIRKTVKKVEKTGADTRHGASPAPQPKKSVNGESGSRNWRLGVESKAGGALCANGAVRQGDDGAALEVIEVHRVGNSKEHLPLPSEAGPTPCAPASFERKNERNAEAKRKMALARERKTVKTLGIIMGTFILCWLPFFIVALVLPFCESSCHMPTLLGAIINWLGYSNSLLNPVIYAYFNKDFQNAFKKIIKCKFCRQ

[2] = target: Gamma-aminobutyric acid receptor subunit alpha-1 (Rattus norvegicus, UniProt P62813); type: functional
Gamma-aminobutyric acid receptor subunit alpha-1, sequence (P62813 whole entry): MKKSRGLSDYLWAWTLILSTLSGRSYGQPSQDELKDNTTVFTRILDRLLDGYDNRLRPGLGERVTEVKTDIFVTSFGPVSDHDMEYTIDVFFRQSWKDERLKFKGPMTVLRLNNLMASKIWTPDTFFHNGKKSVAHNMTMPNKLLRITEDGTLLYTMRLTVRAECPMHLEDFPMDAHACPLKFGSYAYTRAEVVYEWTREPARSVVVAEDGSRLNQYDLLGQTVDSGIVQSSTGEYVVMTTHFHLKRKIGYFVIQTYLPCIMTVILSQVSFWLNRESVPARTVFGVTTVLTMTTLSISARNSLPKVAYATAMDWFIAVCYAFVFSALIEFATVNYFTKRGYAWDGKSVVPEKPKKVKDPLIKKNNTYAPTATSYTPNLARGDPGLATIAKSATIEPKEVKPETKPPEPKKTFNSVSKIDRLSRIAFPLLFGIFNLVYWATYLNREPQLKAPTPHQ

[3] = target: Beta-2 adrenergic receptor (Homo sapiens, UniProt P07550); type: functional, cell-based
Beta-2 adrenergic receptor, sequence (P07550 whole entry): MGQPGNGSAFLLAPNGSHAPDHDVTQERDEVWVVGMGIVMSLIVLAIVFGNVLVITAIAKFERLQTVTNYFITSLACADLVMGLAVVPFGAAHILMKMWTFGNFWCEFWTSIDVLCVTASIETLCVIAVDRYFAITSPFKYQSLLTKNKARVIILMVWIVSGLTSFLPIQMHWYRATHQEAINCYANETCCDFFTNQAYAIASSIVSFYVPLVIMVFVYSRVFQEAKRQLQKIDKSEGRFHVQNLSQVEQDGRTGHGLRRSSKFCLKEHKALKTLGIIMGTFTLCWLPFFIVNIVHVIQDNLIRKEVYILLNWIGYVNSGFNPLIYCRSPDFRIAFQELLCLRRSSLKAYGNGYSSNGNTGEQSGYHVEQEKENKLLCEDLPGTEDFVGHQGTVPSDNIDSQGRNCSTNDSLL

Adenosine receptor A1 = target: T2, Adenosine receptor A1 (Homo sapiens, UniProt P30542)
T2 sequence (P30542 whole entry): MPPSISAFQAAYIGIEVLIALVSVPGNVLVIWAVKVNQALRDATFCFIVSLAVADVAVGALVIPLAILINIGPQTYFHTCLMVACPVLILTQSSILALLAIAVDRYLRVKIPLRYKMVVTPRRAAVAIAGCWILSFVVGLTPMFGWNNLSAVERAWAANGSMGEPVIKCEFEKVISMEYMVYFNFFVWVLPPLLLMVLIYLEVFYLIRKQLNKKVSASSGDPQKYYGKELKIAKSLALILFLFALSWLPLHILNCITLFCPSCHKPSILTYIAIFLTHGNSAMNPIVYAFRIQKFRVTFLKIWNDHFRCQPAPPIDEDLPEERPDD

Mu-type opioid receptor = Mu-type opioid receptor (Homo sapiens, UniProt P35372)
Mu-type opioid receptor, sequence (P35372 whole entry): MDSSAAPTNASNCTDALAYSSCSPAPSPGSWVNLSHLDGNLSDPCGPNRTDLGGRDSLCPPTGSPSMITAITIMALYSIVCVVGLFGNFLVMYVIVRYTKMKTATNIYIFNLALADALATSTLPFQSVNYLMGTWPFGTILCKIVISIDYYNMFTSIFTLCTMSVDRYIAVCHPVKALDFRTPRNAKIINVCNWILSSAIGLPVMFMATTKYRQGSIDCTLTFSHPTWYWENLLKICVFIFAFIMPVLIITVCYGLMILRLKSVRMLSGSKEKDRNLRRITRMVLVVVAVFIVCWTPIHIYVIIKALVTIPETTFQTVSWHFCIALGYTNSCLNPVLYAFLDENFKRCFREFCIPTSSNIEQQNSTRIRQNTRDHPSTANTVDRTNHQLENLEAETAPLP

[4] = target: T3, Muscarinic acetylcholine receptor M2 (Homo sapiens, UniProt P08172); type: functional, cell-based
T3 sequence (P08172 whole entry): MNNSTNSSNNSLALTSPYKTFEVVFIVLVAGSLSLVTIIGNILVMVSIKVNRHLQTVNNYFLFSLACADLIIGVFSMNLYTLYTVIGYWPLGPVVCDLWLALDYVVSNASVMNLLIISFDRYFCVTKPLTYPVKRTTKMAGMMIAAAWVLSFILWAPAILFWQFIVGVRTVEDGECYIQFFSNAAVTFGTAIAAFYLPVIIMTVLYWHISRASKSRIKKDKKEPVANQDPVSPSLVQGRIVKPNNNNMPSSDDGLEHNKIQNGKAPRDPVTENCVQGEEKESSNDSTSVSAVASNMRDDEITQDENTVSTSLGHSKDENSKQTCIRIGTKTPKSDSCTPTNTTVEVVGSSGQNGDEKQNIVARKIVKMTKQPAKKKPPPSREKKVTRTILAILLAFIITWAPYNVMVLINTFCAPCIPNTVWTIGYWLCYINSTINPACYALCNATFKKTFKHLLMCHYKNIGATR

Adenosine receptor A3 = target: T4, Adenosine receptor A3 (Homo sapiens, UniProt P0DMS8)
T4 sequence (P0DMS8 whole entry): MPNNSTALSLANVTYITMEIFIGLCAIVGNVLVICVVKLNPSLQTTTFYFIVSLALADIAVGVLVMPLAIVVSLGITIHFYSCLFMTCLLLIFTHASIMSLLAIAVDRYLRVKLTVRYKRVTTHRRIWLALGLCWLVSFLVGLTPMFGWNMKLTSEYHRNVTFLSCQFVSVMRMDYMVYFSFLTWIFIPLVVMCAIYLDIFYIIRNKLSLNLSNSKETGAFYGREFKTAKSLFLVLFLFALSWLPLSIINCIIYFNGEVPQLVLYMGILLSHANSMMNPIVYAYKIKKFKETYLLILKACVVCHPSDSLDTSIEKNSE

Cannabinoid receptor 1 = Cannabinoid receptor 1 (Homo sapiens, UniProt P21554); type: functional, cell-based
Cannabinoid receptor 1, sequence (P21554 whole entry): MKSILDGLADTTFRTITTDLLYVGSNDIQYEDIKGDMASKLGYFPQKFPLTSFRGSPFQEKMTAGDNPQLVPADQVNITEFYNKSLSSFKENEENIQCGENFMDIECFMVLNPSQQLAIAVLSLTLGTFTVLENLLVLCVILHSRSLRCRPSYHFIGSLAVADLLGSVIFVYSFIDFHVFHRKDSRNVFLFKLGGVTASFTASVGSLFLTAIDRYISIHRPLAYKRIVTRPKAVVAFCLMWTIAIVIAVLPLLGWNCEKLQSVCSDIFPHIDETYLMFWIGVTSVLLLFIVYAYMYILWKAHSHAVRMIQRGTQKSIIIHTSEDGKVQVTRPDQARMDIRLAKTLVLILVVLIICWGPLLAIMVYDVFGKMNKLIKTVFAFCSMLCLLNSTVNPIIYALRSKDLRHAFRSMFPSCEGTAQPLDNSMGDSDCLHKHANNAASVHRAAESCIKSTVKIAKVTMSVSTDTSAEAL

Endothelin-1 receptor = target: T5, Endothelin-1 receptor (Homo sapiens, UniProt P25101)
T5 sequence (P25101 whole entry): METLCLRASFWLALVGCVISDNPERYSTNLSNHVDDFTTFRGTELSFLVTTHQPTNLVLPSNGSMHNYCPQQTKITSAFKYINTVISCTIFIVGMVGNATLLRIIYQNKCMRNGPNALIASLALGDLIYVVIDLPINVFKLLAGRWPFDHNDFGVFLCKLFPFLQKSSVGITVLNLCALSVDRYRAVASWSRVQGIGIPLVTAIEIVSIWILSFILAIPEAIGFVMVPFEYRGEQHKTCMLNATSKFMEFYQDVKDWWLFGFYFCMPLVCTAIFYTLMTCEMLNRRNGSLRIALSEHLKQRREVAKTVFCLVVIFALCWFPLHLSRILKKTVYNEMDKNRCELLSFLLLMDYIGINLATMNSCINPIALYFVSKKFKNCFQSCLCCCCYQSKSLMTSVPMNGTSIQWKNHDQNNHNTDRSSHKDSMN

Thromboxane A2 receptor = target: T6, Thromboxane A2 receptor (Homo sapiens, UniProt P21731)
T6 sequence (P21731 whole entry): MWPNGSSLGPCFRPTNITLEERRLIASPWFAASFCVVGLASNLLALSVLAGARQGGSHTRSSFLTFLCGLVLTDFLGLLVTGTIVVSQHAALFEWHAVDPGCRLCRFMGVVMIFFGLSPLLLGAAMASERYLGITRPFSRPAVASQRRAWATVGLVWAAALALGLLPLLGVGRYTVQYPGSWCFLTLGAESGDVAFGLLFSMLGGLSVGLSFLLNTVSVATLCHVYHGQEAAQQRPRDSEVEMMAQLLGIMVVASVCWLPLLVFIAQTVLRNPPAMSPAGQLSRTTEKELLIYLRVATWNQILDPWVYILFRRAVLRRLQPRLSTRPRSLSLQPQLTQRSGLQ

Histamine H2 receptor = Histamine H2 receptor (Homo sapiens, UniProt P25021); type: functional, cell-based
Histamine H2 receptor, sequence (P25021 whole entry): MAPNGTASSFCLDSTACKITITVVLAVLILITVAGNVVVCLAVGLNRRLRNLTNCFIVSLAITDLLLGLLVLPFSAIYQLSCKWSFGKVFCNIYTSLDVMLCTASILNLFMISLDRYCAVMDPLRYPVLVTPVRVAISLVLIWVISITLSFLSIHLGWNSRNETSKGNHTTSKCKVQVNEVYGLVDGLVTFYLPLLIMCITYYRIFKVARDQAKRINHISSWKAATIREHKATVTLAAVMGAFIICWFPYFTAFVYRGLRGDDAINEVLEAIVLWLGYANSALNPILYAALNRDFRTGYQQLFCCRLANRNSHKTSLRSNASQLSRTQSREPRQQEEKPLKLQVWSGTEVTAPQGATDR
Further: assay procedure not described here.

CC(C)Cc1ccc([C@H](C)C(=O)O)cc1 [DEXIBUPROFEN]
AC50 [1]: > 30 µM
AC50 [2]: > 30 µM
AC50 [3]: > 30 µM
AC50 (Adenosine receptor A1): > 30 µM
AC50 (Mu-type opioid receptor): > 30 µM
AC50 [4]: > 30 µM
AC50 (Adenosine receptor A3): > 30 µM
AC50 (Cannabinoid receptor 1): > 30 µM
AC50 (Endothelin-1 receptor): > 30 µM

CNC[C@H](O)c1ccc(O)c(O)c1 [EPINEPHRINE]
AC50 [2]: > 30 µM
AC50 (Adenosine receptor A1): > 30 µM
AC50 [4]: > 30 µM
AC50 (Adenosine receptor A3): 18 µM
AC50 (Cannabinoid receptor 1): > 30 µM
AC50 (Endothelin-1 receptor): > 30 µM

Cc1onc(-c2c(F)cccc2Cl)c1C(=O)N[C@@H]1C(=O)N2[C@@H]1SC(C)(C)[C@@H]2C(=O)O [FLOXACILLIN]
AC50 [1]: > 30 µM
AC50 [2]: > 30 µM
AC50 [3]: > 30 µM
AC50 (Adenosine receptor A1): > 30 µM
AC50 (Mu-type opioid receptor): > 30 µM
AC50 [4]: > 30 µM
AC50 (Adenosine receptor A3): > 30 µM
AC50 (Cannabinoid receptor 1): > 30 µM
AC50 (Endothelin-1 receptor): > 30 µM

CCCCCCCN(CC)CCCC(O)c1ccc(NS(C)(=O)=O)cc1 (stereo not drawn) [IBUTILIDE]
AC50 (Thromboxane A2 receptor): > 30 µM
AC50 [1]: > 30 µM
AC50 [2]: > 30 µM
AC50 (Adenosine receptor A1): > 30 µM
AC50 [4]: 22 µM
AC50 (Adenosine receptor A3): > 30 µM
AC50 (Histamine H2 receptor): > 30 µM
AC50 (Endothelin-1 receptor): > 30 µM

CNC(=C[N+](=O)[O-])NCCSCc1csc(CN(C)C)n1 [NIZATIDINE]
AC50 (Thromboxane A2 receptor): > 10 µM
AC50 [1]: > 10 µM
AC50 [2]: > 10 µM
AC50 (Adenosine receptor A1): > 10 µM
AC50 (Mu-type opioid receptor): > 30 µM
AC50 [4]: > 10 µM
AC50 (Adenosine receptor A3): > 10 µM
AC50 (Histamine H2 receptor): > 10 µM

CCCc1cc(=O)[nH]c(=S)[nH]1 [PROPYLTHIOURACIL]
AC50 (Thromboxane A2 receptor): > 10 µM
AC50 [1]: > 10 µM
AC50 [2]: > 10 µM
AC50 (Adenosine receptor A1): > 10 µM
AC50 (Mu-type opioid receptor): > 30 µM
AC50 [4]: > 10 µM
AC50 (Adenosine receptor A3): > 10 µM
AC50 (Histamine H2 receptor): > 10 µM

Cn1cc(C(=O)[C@@H]2CCc3nc[nH]c3C2)c2ccccc21 [RAMOSETRON]
AC50 (Thromboxane A2 receptor): > 30 µM
AC50 [1]: > 30 µM
AC50 [2]: 17 µM
AC50 (Adenosine receptor A1): > 30 µM
AC50 [4]: > 30 µM
AC50 (Adenosine receptor A3): > 30 µM
AC50 (Histamine H2 receptor): > 30 µM
AC50 (Cannabinoid receptor 1): > 30 µM
AC50 (Endothelin-1 receptor): > 30 µM

CN(CCOc1ccc(CC2SC(=O)NC2=O)cc1)c1ccccn1 (stereo not drawn) [ROSIGLITAZONE]
AC50 (Thromboxane A2 receptor): > 30 µM
AC50 [1]: > 30 µM
AC50 [2]: > 30 µM
AC50 (Adenosine receptor A1): > 30 µM
AC50 (Mu-type opioid receptor): > 10 µM
AC50 [4]: 22 µM
AC50 (Adenosine receptor A3): > 30 µM
AC50 (Histamine H2 receptor): > 30 µM
AC50 (Cannabinoid receptor 1): > 30 µM
AC50 (Endothelin-1 receptor): > 30 µM

S=P(N1CC1)(N1CC1)N1CC1 [THIOTEPA]
AC50 [1]: > 10 µM
AC50 [2]: > 30 µM
AC50 [3]: > 30 µM
AC50 (Adenosine receptor A1): > 30 µM
AC50 (Mu-type opioid receptor): 28 µM
AC50 (Adenosine receptor A3): > 30 µM
AC50 (Cannabinoid receptor 1): > 30 µM
AC50 (Endothelin-1 receptor): > 30 µM

COc1cc(C(=O)NS(=O)(=O)c2ccccc2C)ccc1Cc1cn(C)c2ccc(NC(=O)OC3CCCC3)cc12 [ZAFIRLUKAST]
AC50 (Thromboxane A2 receptor): > 10 µM
AC50 [1]: > 10 µM
AC50 [2]: > 10 µM
AC50 (Adenosine receptor A1): > 30 µM
AC50 (Mu-type opioid receptor): > 30 µM
AC50 (Adenosine receptor A3): 11.4 µM
AC50 (Histamine H2 receptor): > 10 µM
AC50 (Cannabinoid receptor 1): > 30 µM
